Measured values published in patent US20190343908A1, “Therapeutic Combination for the Treatment of Cancer” (Nerium Biotechnology Inc., priority 2011, published 2019).

Columns and labels:
[1] = system: LNCaP prostate cancer cell line; assay: Crystal Violet viability assay, LNCaP; format: cell-based, human; conditions: for ABSORBANCE: LNCaP, 0.1 μg/mL cisplatin
From the text: (§1) Three different viability assays were chosen to complement each other and yielded results dependent on concentration and cell line: the Methyl Tetrazolium dye assay, the Sulforhodamine B fluorescent dye assay, and the Crystal Violet dye assay.
(§2) The Sulforhodamine B and Crystal Violet assays provide information about protein and were used to complement the Methyl-Tetrazolium dye assay. […] It is used for the quantification of cellular proteins of cultured cells. The assay using Crystal Violet, a dye that binds electrostatically to proteins and stains DNA, provides a reliable, simple assay for measuring viability of cells.
(§3) The Methyl Tetrazolium, Sulforhodamine B, and Crystal Violet assays were used to assess cell viabilities. The incubation times were 24 hours, 48 hours, and 72 hours. The Nerium oleander extract Anvirzel™ (a hot water extract of oleander obtained from Salud Integral, Honduras) was tested in concentrations ranging from 0.01 ng/mL to 10 ng/mL.
(§4) Cells were detached by trypsinization (Trypsin-0.25% EDTA, Invitrogen, 25200-072) during the logarithmic phase of culture growth and plated in 96-well plates (18.000 cells/well) (Corning, Costar 359) in a final volume of 200 μl of medium per well. […] The absorbance was measured after 24 hours, 48 hours, and 72 hours of incubation.
(§5) For the Crystal Violet assay, the medium was removed from the 96-well plates, the plates rinsed with PBS (Sigma, P3813) and then the cells were […] by the addition of 10% formalin (MERCK, 1.04003.2500) for 20 minutes at RT. Formalin was removed and 0.25% aqueous crystal violet (Sigma, HT901), dissolved in water, was added for 10 minutes at RT. Unbound Crystal Violet was rinsed by washing with water and finally 33% acetic acid was added to dissolve the dye.
(§6) The optical density of each plate was measured on a μQuant spectrophotometer and the data were analyzed with Gen5 software (μQuant Biomolecular Spectrophotometer MQX200 and Gen5™ Microplate Data Collection & Analysis software, BioTek® Instruments. Inc, April 2008). Absorbance was measured at 570 nm for all assays and a second wavelength was measured in order to subtract noise. For the Methyl-Tetrazolium assay this second wavelength was 630 nm and for the Sulforhodamine B and Crystal Violet assays it was 690 nm.

[2] = system: COLO699N lung cancer cell line; assay: Crystal Violet viability assay, COLO699N; format: cell-based, human; design: key to CVE Average: absorbance at 570 nm (crystal violet), background wavelength subtracted; conditions: for Average CVE 24 h / Average CVE 48 h / Average CVE 72 h: COLO699N Run 1; for ABSORBANCE: COLO699N, 0.1 μg/mL cisplatin
From the text: as §1, §2, §3, §4, §5, §6

## N.N.[Cl][Pt][Cl] [cisplatin]
[1]; LNCaP Run 3, 24 h, 0.1 μg/ml CDDP
  CVE Average: 0.425
[1]; LNCaP Run 3, 24 h, 1 μg/ml CDDP
  CVE Average: 0.152
[1]; LNCaP Run 3, 24 h, 10 μg/ml CDDP
  CVE Average: 0.171
[1]; LNCaP Run 3, 24 h, 100 μg/ml CDDP
  CVE Average: 0.133
[1]; LNCaP Run 3, 48 h, 0.1 μg/ml CDDP
  CVE Average: 0.387
[1]; LNCaP Run 3, 48 h, 1 μg/ml CDDP
  CVE Average: 0.24
[1]; LNCaP Run 3, 48 h, 10 μg/ml CDDP
  CVE Average: 0.267
[1]; LNCaP Run 3, 48 h, 100 μg/ml CDDP
  CVE Average: 0.3
[1]; LNCaP Run 3, 72 h, 0.1 μg/ml CDDP
  CVE Average: 0.619
[1]; LNCaP Run 3, 72 h, 1 μg/ml CDDP
  CVE Average: 0.312
[1]; LNCaP Run 3, 72 h, 10 μg/ml CDDP
  CVE Average: 0.303
[1]; LNCaP Run 3, 72 h, 100 μg/ml CDDP
  CVE Average: 0.289
[1]; 48 h
  ABSORBANCE: 0.408
[1]; 72 h
  ABSORBANCE: 0.448
[1]; Run 1, 0.1 μg/ml CDDP
  Average CVE 24 h: 0.418
  Average CVE 48 h: 0.541
  Average CVE 72 h: 0.684
[1]; Run 1, 1 μg/ml CDDP
  Average CVE 24 h: 0.327
  Average CVE 48 h: 0.252
  Average CVE 72 h: 0.558
[1]; Run 1, 10 μg/ml CDDP
  Average CVE 24 h: 0.289
  Average CVE 48 h: 0.467
  Average CVE 72 h: 0.423
[1]; Run 1, 100 μg/ml CDDP
  Average CVE 24 h: 0.359
  Average CVE 48 h: 0.306
  Average CVE 72 h: 0.398
[1]; Run 2, 0.1 μg/ml CDDP
  Average CVE 24 h: 0.463
  Average CVE 48 h: 0.408
  Average CVE 72 h: 0.448
[1]; Run 2, 1 μg/ml CDDP
  Average CVE 24 h: 0.227
  Average CVE 48 h: 0.29
  Average CVE 72 h: 0.522
[1]; Run 2, 10 μg/ml CDDP
  Average CVE 24 h: 0.278
  Average CVE 48 h: 0.207
  Average CVE 72 h: 0.299
[1]; Run 2, 100 μg/ml CDDP
  Average CVE 24 h: 0.276
  Average CVE 48 h: 0.237
  Average CVE 72 h: 0.214
[2]; 0.1 μg/ml CDDP
  Average CVE 24 h: 0.303
[2]; 0.1 μg/ml CDDP, 48 h
  Average CVE 48 h: 0.393
[2]; 0.1 μg/ml CDDP, 72 h
  Average CVE 72 h: 0.418
[2]; 1 μg/ml CDDP
  Average CVE 24 h: 0.222
[2]; 1 μg/ml CDDP, 48 h
  Average CVE 48 h: 0.136
[2]; 1 μg/ml CDDP, 72 h
  Average CVE 72 h: 0.313
[2]; 10 μg/ml CDDP
  Average CVE 24 h: 0.313
[2]; 10 μg/ml CDDP, 48 h
  Average CVE 48 h: 0.47
[2]; 10 μg/ml CDDP, 72 h
  Average CVE 72 h: 0.256
[2]; 100 μg/ml CDDP
  Average CVE 24 h: 0.223
[2]; 100 μg/ml CDDP, 48 h
  Average CVE 48 h: 0.189
[2]; 100 μg/ml CDDP, 72 h
  Average CVE 72 h: 0.172
[2]; 48 h
  ABSORBANCE: 0.801
[2]; 72 h
  ABSORBANCE: 1
[2]; Run 2, 24 h, 0.1 μg/ml CDDP
  CVE Average: 0.551
[2]; Run 2, 24 h, 1 μg/ml CDDP
  CVE Average: 0.232
[2]; Run 2, 24 h, 10 μg/ml CDDP
  CVE Average: 0.504
[2]; Run 2, 24 h, 100 μg/ml CDDP
  CVE Average: 0.266
[2]; Run 2, 48 h, 0.1 μg/ml CDDP
  CVE Average: 0.801
[2]; Run 2, 48 h, 1 μg/ml CDDP
  CVE Average: 0.311
[2]; Run 2, 48 h, 10 μg/ml CDDP
  CVE Average: 0.205
[2]; Run 2, 48 h, 100 μg/ml CDDP
  CVE Average: 0.287
[2]; Run 2, 72 h, 0.1 μg/ml CDDP
  CVE Average: 1
[2]; Run 2, 72 h, 1 μg/ml CDDP
  CVE Average: 0.337
[2]; Run 2, 72 h, 10 μg/ml CDDP
  CVE Average: 0.127
[2]; Run 2, 72 h, 100 μg/ml CDDP
  CVE Average: 0.268
[2]; Run 3, 24 h, 0.1 μg/ml CDDP
  CVE Average: 0.675
[2]; Run 3, 24 h, 1 μg/ml CDDP
  CVE Average: 0.194
[2]; Run 3, 24 h, 10 μg/ml CDDP
  CVE Average: 0.398
[2]; Run 3, 24 h, 100 μg/ml CDDP
  CVE Average: 0.224
[2]; Run 3, 48 h, 0.1 μg/ml CDDP
  CVE Average: 0.624
[2]; Run 3, 48 h, 1 μg/ml CDDP
  CVE Average: 0.815
[2]; Run 3, 48 h, 10 μg/ml CDDP
  CVE Average: 0.199
[2]; Run 3, 48 h, 100 μg/ml CDDP
  CVE Average: 0.185
[2]; Run 3, 72 h, 0.1 μg/ml CDDP
  CVE Average: 0.759
[2]; Run 3, 72 h, 1 μg/ml CDDP
  CVE Average: 0.295
[2]; Run 3, 72 h, 10 μg/ml CDDP
  CVE Average: 0.155
[2]; Run 3, 72 h, 100 μg/ml CDDP
  CVE Average: 0.393
